The values below are quoted from earlier work in patent publication US10281459B2, “Protein biosensors, cross reactive sensor arrays and methods of use thereof” (YEDA RESEARCH AND DEVELOPMENT CO. LTD., priority 2012, dated 2019).

Data set [1] concerns the target MMP isoforms. The conditions noted are these: broad-spectrum inhibitor of MMP isoforms; literature.
The target in data set [2] is GSTs. Particulars: literature.

The structures appear in SMILES notation.

Consider `CNC(=O)[C@@H](NC(=O)[C@H](CC(C)C)[C@H](O)C(=O)NO)C(C)(C)C` [Marimastat, marimastat], for which, in data set [1], the Ki values entry is on record as “low nanomolar range”.
For `C=C(CC)C(=O)c1ccc(OCC(=O)O)c(Cl)c1Cl` [EA, ethacrynic acid], the “reported values for the inhibition of GSTs” value in data set [2] is reported as “low micromolar range”.
